Data published in publication PMC3924328, “Structure of the S100A4/myosin-IIA complex” (BMC Structural Biology, 2013).
The star is where a group is joined. FITC = O=C1OC2(c3ccc(O)cc3Oc3cc(O)ccc32)c2ccc(NC(=S)*)cc21; Ahx = NCCCCCC(=O)O

Tests used:
S100A4Δ8C [1] = molecular target: T1, S100A4Δ8C (Homo sapiens, UniProt P26447); experiment: Fluorescence anisotropy, FITC-MIIA^1904-1927 binding to S100A4Δ8C; settings: 22°C, 5 mM EGTA, data not shown
T1 construct: unable to crystallize the wild-type full-length S100A4 with myosin-IIA peptides; made in house; host or cells: E. coli BL21(DE3)*
T1 sequence (P26447 2-93, stated change not applied): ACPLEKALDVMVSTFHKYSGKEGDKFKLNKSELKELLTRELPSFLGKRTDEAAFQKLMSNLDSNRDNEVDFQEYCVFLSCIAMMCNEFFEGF
Procedure: Fluorescence anisotropy measurements were performed at 22°C using a Fluoromax-3-spectrofluorometer (Jobin Yvon). Individual reactions (200 μl) contained 50 nM FITC-MIIA^1904-1927 and 0–30 μM S100A4Δ8C dimer in 20 mM Tris pH 7.5, 150 mM KCl, 1 mM DTT, 0.02% NaN3, 0.5 mM CaCl2 and 0.5 mg/ml BSA. For competition anisotropy measurements individual reactions contained 50 nM FITC-MIIA^1904-1927, 0.3 μM S100A4 dimer and 0–10 μM MIIA^1851-1960 dimer as described above. Controls included experiments representing maximum anisotropy (15 μM wild-type S100A4 and S100A4Δ8C, 50 nM FITC-MIIA^1904-1927 and calcium) and minimum anisotropy (in the absence of S100A4 and in the presence of S100A4 and 5 mM EGTA). Anisotropy was measured using excitation and emission wavelengths of 490 nm and 520 nm, respectively. Measurements were acquired at the magic angle of 55° between the vectors of polarization of the excitation and emission light using a G factor of 0.634 as determined previously for FITC on this instrument. For measurements of S100A4Δ8C binding, data from two independent experiments were plotted using Graphpad Prism v5, and the dissociation constant was calculated by fitting to a single site saturation binding equation allowing for a floating Ymin value. […]

Ca^2+-S100A4 = experiment: Paramagnetic relaxation, titration with spin-labeled MIIA^1893-1923-Cys-Proxyl; assay type: binding, human; settings: HSQC, 37°C, pH 6.5
Procedure: The beads containing the immobilized TCEP and other particulates were removed using a 0.45 μm Nanosep MF GHP centrifugal device (Pall Life Sciences) before the addition of 61 μl freshly prepared 50 mg/ml 3-maleimido-Proxyl (Sigma-Aldrich) in DMSO.
(§1) HSQC NMR data were collected at 37°C with a 600 MHz (600.13 MHz for protons) Bruker DMX NMR spectrometer equipped with pulsed-field gradients, four frequency channels, and a triple resonance, z-axis gradient cryogenic probe, Data were processed with NMRPipe, and proton chemical shifts were reported with respect to the H2O or HDO signal taken as 4.658 ppm relative to external trimethylsilylpropionic acid (0.0 ppm). The ^15 N chemical shifts were indirectly referenced as described previously using the following ratio of the zero-point frequency: 0.10132905 for ^15 N to ^1H [56].

S100A4 [2] = molecular target: S100A4; parameters: method as in PMID 18410126; settings: ref [4]; cited from earlier work
S100A4Δ8C [3] = molecular target: T1, S100A4Δ8C; experiment: NMR titration of MIIA^1908-1923 into ^15N-labeled Ca^2+-bound S100A4Δ8C; assay type: binding
Procedure: as §1

S100A4 [4] = settings: S100A4 bound to MIIA^1908-1923; ref [4]; cited from earlier work
Excerpt: In this regard, we examined whether this small peptide was sufficient to induce what is termed the “final folding” event that occurs upon S100 protein-target complex formation. […] As found for other wild-type and mutant S100 proteins [[6] ...

S100A4 [5] = molecular target: T2, S100A4 (Homo sapiens, UniProt P26447); experiment: Sedimentation velocity of MIIA^1851-1960, S100A4 and S100A4/MIIA^1851-1960 mixtures; assay type: physicochemical
T2 construct: heteronuclear single quantum coherence spectrum (HSQC) of full-length Ca^2+-S100A4 at 600 MHz; made in house; host or cells: E. coli, M9 medium with 15N NH4Cl (BL21(DE3)* is named for the unlabelled protein)
T2 sequence (P26447 2-101 limits assumed, one chain of several): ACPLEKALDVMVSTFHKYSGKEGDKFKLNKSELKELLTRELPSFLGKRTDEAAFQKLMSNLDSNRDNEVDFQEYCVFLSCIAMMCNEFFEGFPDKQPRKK
Procedure: Sedimentation equilibrium and velocity experiments were conducted at 22°C in a Beckman XL-I analytical ultracentrifuge using a Ti60 rotor and Raleigh interference optics. Wild-type S100A4 and MIIA^1851-1960 were dialyzed into 20 mM Tris pH 7.5, 150 mM KCl, 0.5 mM CaCl2, 1 mM TCEP and 0.02% NaN3 and clarified by ultracentrifugation at 80,000 rpm for 10 minutes at 4°C in TLA 120.2 rotor. Sedimentation equilibrium analysis of MIIA^1851-1960 and S100A4 was conducted in six channel centerpieces by sequentially equilibrating the protein at three concentrations for 24 hr at 12,000, 20,000 and 28,000 rpm and globally analyzing the data using HeteroAnalysis v1.1.44 (James L. Cole and Jeffrey W. Lary). The sedimentation velocity experiments were conducted at 53,000 rpm using double sector centerpieces and analyzed using DCDT + v2.4.0 [57, 58]. The best-fit parameters and their 95% joint confidence intervals are reported. The calculated masses of the wild-type S100A4 and MIIA^1851-1960 monomers are 11,597.3 and 12,397.5 Da, respectively. Values of ν-bar = 0.715 for S100A4/MIIA^851-1960 and 0.735 for S100A4, ρ = 1.0059, μ = 1.00586 cp were calculated using Sednterp v1.06 (Hayes, B., T. Laue & J. Philo, Sedimentation Interpretation Program. 2003, University of New Hampshire) from the amino acid and buffer compositions, respectively.

myosin-IIA rods = settings: assembly-competent myosin-II rod constructs; ref [19], [20]; cited from earlier work
Excerpt: Each heavy chain is comprised of an N-terminal motor domain that contains the ATP- and actin-binding sites, an intermediate rod domain that dimerizes to form an α-helical coiled-coil and a C-terminal tailpiece.

[6] = submicromolar concentrations; ref [4], [27], [30]; cited from earlier work
Procedure: Given the similarity in the molecular weights of the S100A4 and MIIA^1851-1960 dimers, the S100A4/MIIA^1851-1960 complex was further evaluated in sedimentation velocity experiments where MIIA^1851-1960 was added to S100A4 at increasing molar ratios. […] At a molar ratio of 0.5:1 MIIA^1851-1960 dimer to S100A4 dimer there was a shift in the S val ...

[7] = tested on: myosin-IIA rods (MIIA^1339−1960); experiment: Promotion of disassembly assay, assembled myosin-IIA rods; assay type: biochemical; settings: one S100A4Δ8C dimer per myosin-IIA rod; 1.5 μM S100A4 dimer, 1.5 μM rod dimer; 20 mM Tris–HCl pH 7.5, 150 mM NaCl, 1 mM DTT, 2 mM MgCl2, 0.5 mM CaCl2, 0.02% NaN3; 2 hr, 22°C; SDS-PAGE densitometry; two independent experiments
Procedure: Assays comparing the ability of wild-type and the Δ8C S100A4 to depolymerize assembled myosin-IIA rods were performed as described in Li et al., using 1.5 μM S100A4 dimer and 1.5 μM myosin-IIA rod dimer in 20 mM Tris–HCl pH 7.5, 150 mM NaCl, 1 mM DTT, 2 mM MgCl2, 0.5 mM CaCl2, and 0.02% NaN3. Reaction mixtures (100 μl) were incubated for 2 hr at 22°C and then centrifuged at 80,000 rpm (175000 g) for 10 min at 25°C in a TL-100 ultracentrifuge (Beckman). Samples of the reaction mixtures and supernatants were separated on a 12% Tris-Tricine SDS-polyacrylamide gel. Coomassie-stained gels were scanned and the extent of myosin-IIA polymerization was quantified by densitometry and analyzed with the ImageQuant version 5.2.

[8] = sedimentation velocity, 22°C, protein alone

With “{FITC-Ahx}-TETADAMNREVSSLKNKLRRGDLP-NH2 [FITC-MIIA^1904-1927]” the “Binding to S100A4Δ8C in the presence of EGTA” value (S100A4Δ8C [1]) was “no binding was observed”.
For “MIIA^1893-1923-Cys-Proxyl: MIIA^1893-1923-Cys labeled with 3-maleimido-Proxyl spin label”, the “Residues with large reductions in cross-peak intensities” value (Ca^2+-S100A4; 2.6 μM spin-labeled peptide) was “loop 1 (Asp25), the beginning of helix 3 (Asp51, Glu52) and in the C-terminal loop (Lys100)” and the “Location of peptide C-terminus on S100A4 by paramagnetic relaxation” value (Ca^2+-S100A4; 2.6 and 5.3 μM spin-labeled peptide) was “near residues in helix 3 and the hinge (Leu46, Gly47, Asp51, Glu52”.
In the case of “Ac-RRKLQRELEDATETADAMNREVSSLKNKLRR-CONH2 [MIIA^1893-1923]”, the “Dissociation constant, in words” value (S100A4 [2]) is given as “in the nanomolar range”.
In the case of “Ace-DAMNREVSSLKNKLRR-CONH2 [MIIA^1908-1923]”, the “Binding orientation to S100A4Δ8C versus wild-type S100A4” value (S100A4Δ8C [3]; 37°C, pH 6.5, 10 mM CaCl2) is given as “very similar structure/orientation in solution as observed for wild-type S100A4”, the “Exchange broadening of Ca^2+-bound S100A4Δ8C upon complex formation” value (S100A4Δ8C [3]; data not shown) is given as “exchange broadening completely disappeared” and the “Ca^2+-binding affinity of S100A4 when peptide bound” value (S100A4 [4]) is given as “higher Ca^2+-binding affinity”.
In the case of “S100A4: untagged, full-length human S100A4”, the “Effect of S100A4 binding on dimeric myosin-IIA construct” value (S100A4 [5]; longer, dimeric myosin-IIA construct) is reported as “dissociates the two myosin-IIA polypeptide chains to form a complex composed of one S100A4 dimer and a single myosin-IIA polypeptide chain”, the “Peak 1 S20,w” value (S100A4 [5]; sedimentation velocity, 22°C, 53,000 rpm, protein alone, 20 mM Tris pH 7.5, 150 mM KCl, 0.5 mM CaCl2, 1 mM TCEP, 0.02% NaN3) is reported as 1.90 ± 0.01 and the “Peak 1 MW” value (S100A4 [5]; [8]) is reported as 21.2 ± 0.3 kDa. For the same substance, the S value (S100A4 [5]; [8]) was 1.9 S, the “[Peak 1] (green), relative amount of plateau concentrations” value (S100A4 [5]; [8]) was 2.00 ± 0.02 and the Myosin-II isoform preference (myosin-IIA rods) was “preferentially recognizes and disassembles myosin-IIA rods”. The Dimer stability [6] was “thermostable dimer at submicromolar concentrations”.
In the case of “S100A4Δ8C: S100A4 deletion mutant (deletion of the C-terminal eight amino acids)”, the Myosin-IIA filaments disassembled [7] is reported as “approximately 85%”.
